Test results taken from patent publication US20250333406A1, “SULFONYL CYCLIC DERIVATIVES, AND COMPOSITIONS AND METHODS THEREOF” (Lysoway Therapeutics, Inc., priority 2023, published 2025).

Tested on: TFEB
Test: TFEB Nuclear Translocation Assay
Type: cell-based
Conditions: read-out: EC50 of TFEB activation

SMILES	EC50 [µM]
CC(F)(F)c1ccc(S(=O)(=O)n2nc(N3CCN(c4ncc(F)cn4)CC34CC4)c3c(O)cccc32)cc1 [Compound 134, 1-[4-(1,1-difluoroethyl)phenyl]sulfonyl-3-[7-(5-fluoropyrimidin-2-yl)-4,7-diazaspiro [2.5]octan-4-yl]indazol-4-ol]	≥ 10
CC(C)S(=O)(=O)c1ccc(S(=O)(=O)n2nc(N3CCN(c4ncc(Cl)cn4)CC3C3CC3)c3c(Cl)cccc32)s1 (stereo not drawn) [Compound 5, 4-chloro-3-[4-(5-chloropyrimidin-2-yl)-2-cyclopropyl-piperazin-1-yl]-1-[(5-isopropylsulfonyl-2-thienyl)sulfonyl]indazole]	≤ 1
CC(C)S(=O)(=O)c1ccc(S(=O)(=O)n2nc(N3CCN(c4ncc(F)cn4)C[C@H]3C(F)(F)F)c3c(F)cccc32)cc1 (single isomer, unassigned) [Compound 73]	≤ 1
CC(F)(F)c1ccc(S(=O)(=O)n2nc(N3CCN(c4ncc(F)cn4)CC34CC4)c3c(Cl)cccc32)cn1 [Compound 135, 4-chloro-1-[[6-(1,1-difluoroethyl)-3-pyridyl]sulfonyl]-3-[7-(5-fluoropyrimidin-2-yl)-4,7-diazaspiro [2.5]octan-4-yl]indazole]	≤ 1
[2H]c1c([2H])c(S(=O)(=O)n2nc(N3CCN(c4ncc(F)cn4)CC34CC4)c3c(Cl)cccc32)c([2H])c([2H])c1S(=O)(=O)C(C)C [Compound 64, 4-chloro-3-[7-(5-fluoropyrimidin-2-yl)-4,7-diazaspiro [2.5]octan-4-yl]-1-(2,3,5,6-tetradeuterio-4-isopropylsulfonyl-phenyl) sulfonyl-indazole]	≤ 1
CC(C)S(=O)(=O)c1ccc(S(=O)(=O)n2nc(N3CCC(=O)CC3C(F)(F)F)c3c(Cl)cccc32)cc1 (stereo not drawn) [Compound 84, 1-[4-chloro-1-(4-isopropylsulfonylphenyl)sulfonyl-indazol-3-yl]-2-(trifluoromethyl)piperidin-4-one]	≤ 1
CC(F)(F)c1ccc(S(=O)(=O)n2nc(N3CCN(C(C)(CF)CF)CC34CC4)c3c(Cl)cccc32)cc1 [Compound 130, 4-chloro-1-[4-(1,1-difluoroethyl)phenyl]sulfonyl-3-[7-[2-fluoro-1-(fluoromethyl)-1-methyl-ethyl]-4,7-diazaspiro [2.5]octan-4-yl]indazole]	≤ 1
CC(C)S(=O)(=O)c1ccc(S(=O)(=O)n2nc(N3CCN(c4ccc(F)cn4)CC34CC4)c3c(F)cc(F)cc32)cc1 [Compound 19, 4,6-difluoro-3-[7-(5-fluoro-2-pyridyl)-4,7-diazaspiro [2.5]octan-4-yl]-1-(4-isopropylsulfonylphenyl) sulfonyl-indazole]	≤ 1
CC(C)S(=O)(=O)c1ccc(S(=O)(=O)n2nc(N3CCC(OC(F)F)CC34CC4)c3c(Cl)cccc32)cc1 (stereo not drawn) [Compound 87, 4-chloro-3-[7-(difluoromethoxy)-4-azaspiro [2.5]octan-4-yl]-1-(4-isopropylsulfonylphenyl) sulfonyl-indazole]	≤ 1
CC(C)S(=O)(=O)n1ccc(S(=O)(=O)n2nc(N3CCCC34CC4)c3c(Cl)cc(F)cc32)c1 [Compound 188, 3-(4-azaspiro [2.4]heptan-4-yl)-4-chloro-6-fluoro-1-(1-isopropylsulfonylpyrrol-3-yl) sulfonyl-indazole]	≤ 1
CC(F)(F)c1ccc(S(=O)(=O)n2nc(N3CCN(c4ccc(F)cc4F)CC34CC4)c3c(Cl)cccc32)cc1 [Compound 126, 4-chloro-1-((4-(1,1-difluoroethyl)phenyl)sulfonyl)-3-(7-(2,4-difluorophenyl)-4,7-diazaspiro[2.5]octan-4-yl)-1H-indazole]	≤ 1
O=S(=O)(c1ccc(C(F)(F)CF)cc1)n1nc(N2CCN(c3ncc(F)cn3)CC23CC3)c2c(Cl)cccc21 [Compound 98, 4-chloro-3-[7-(5-fluoropyrimidin-2-yl)-4,7-diazaspiro [2.5]octan-4-yl]-1-[4-(1,1,2-trifluoroethyl)phenyl]sulfonyl-indazole]	≤ 1
CC(C)S(=O)(=O)c1ccc(S(=O)(=O)n2nc(N3CCN(c4ncc(Cl)cn4)CC34CC4)c3c(F)cccc32)cc1 [Compound 15, 3-(7-(5-chloropyrimidin-2-yl)-4,7-diazaspiro [2.5]octan-4-yl)-4-fluoro-1-((4-(isopropylsulfonyl)phenyl)sulfonyl)-1H-indazole]	≤ 1
CC(C)S(=O)(=O)n1cnc(S(=O)(=O)n2nc(N3CCN(c4ncc(F)cc4F)CC34CC4)c3c(F)cc(F)cc32)n1 [Compound 200, 3-(7-(3,5-difluoropyridin-2-yl)-4,7-diazaspiro [2.5]octan-4-yl)-4,6-difluoro-1-((1-(isopropylsulfonyl)-1H−1,2,4-triazol-3-yl)sulfonyl)-1H-indazole]	≥ 10
CC(C)S(=O)(=O)c1ccc(S(=O)(=O)n2nc(N3CCN(c4ncc(F)cn4)C[C@@H]3C(F)(F)F)c3c(Cl)cccc32)cc1 [Compound 68, 4-chloro-3-[(2R)-4-(5-fluoropyrimidin-2-yl)-2-(trifluoromethyl)piperazin-1-yl]-1-(4-isopropylsulfonylphenyl) sulfonyl-indazole]	≤ 1
CC(C)S(=O)(=O)n1ccc(S(=O)(=O)n2nc(N3CCN(c4ncc(F)cn4)CC34CC4)c3c(Cl)cc(F)cc32)c1 [Compound 155, 4-chloro-6-fluoro-3-(7-(5-fluoropyrimidin-2-yl)-4,7-diazaspiro [2.5]octan-4-yl)-1-((1-(isopropylsulfonyl)-1H-pyrrol-3-yl)sulfonyl)-1H-indazole]	≤ 1
CC(C)S(=N)(=O)c1ccc(S(=O)(=O)n2nc(N3CCN(c4ncc(F)cn4)CC34CC4)c3c(Cl)cccc32)cc1 (stereo not drawn) [Compound 58, [4-[4-chloro-3-[7-(5-fluoropyrimidin-2-yl)-4,7-diazaspiro [2.5]octan-4-yl]indazol-1-yl]sulfonylphenyl]-imino-isopropyl-oxo-λ6-sulfane]	≤ 1
CC(F)(F)c1ccc(S(=O)(=O)n2nc(N3CCN(c4ncc(F)cn4)CC34CC4)c3c(F)cccc32)cc1 [Compound 133, 1-[4-(1,1-difluoroethyl)phenyl]sulfonyl-4-fluoro-3-[7-(5-fluoropyrimidin-2-yl)-4,7-diazaspiro [2.5]octan-4-yl]indazole]	≤ 1
CC(C)S(=O)(=O)c1ccc(S(=O)(=O)n2nc(N3CCN(C(=O)C(F)F)CC3C(F)(F)F)c3c(Cl)cccc32)cc1 (stereo not drawn) [Compound 74, 1-[4-[4-chloro-1-(4-isopropylsulfonylphenyl)sulfonyl-indazol-3-yl]-3-(trifluoromethyl)piperazin-1-yl]-2,2-difluoro-ethanone]	≤ 1
CC(F)(F)c1ccc(S(=O)(=O)n2nc(N3CCN(c4ncc(F)cn4)C[C@H]3C(C)(C)F)c3c(Cl)cccc32)cc1 [Compound 121, (S)-4-chloro-1-((4-(1,1-difluoroethyl)phenyl)sulfonyl)-3-(2-(2-fluoropropan-2-yl)-4-(5-fluoropyrimidin-2-yl)piperazin-1-yl)-1H-indazole]	≤ 1
CC(C)S(=O)(=O)c1ccc(S(=O)(=O)n2nc(N3CCN(c4ncc(F)cc4F)CC34CC4)c3c(Cl)cccc32)cc1 [Compound 24, 4-chloro-3-[7-(3,5-difluoro-2-pyridyl)-4,7-diazaspiro [2.5]octan-4-yl]-1-(4-isopropylsulfonylphenyl) sulfonyl-indazole]	≤ 1
CC(C)S(=O)(=O)n1ccc(S(=O)(=O)n2nc(N3CCN(CC(F)(F)F)CC34CC4)c3c(Cl)cc(F)cc32)c1 [Compound 59, 4-chloro-6-fluoro-1-(1-isopropylsulfonylpyrrol-3-yl)sulfonyl-3-[7-(2,2,2-trifluoroethyl)-4,7-diazaspiro[2.5]octan-4-yl]indazole]	≤ 1
CC(C)S(=O)(=O)n1ccc(S(=O)(=O)n2nc(N3CCC34CCC4)c3c(Cl)cc(F)cc32)c1 [Compound 189, 3-(1-azaspiro [3.3]heptan-1-yl)-4-chloro-6-fluoro-1-(1-isopropylsulfonylpyrrol-3-yl) sulfonyl-indazole]	≤ 1
CC(C)S(=O)(=O)c1ccc(S(=O)(=O)n2nc(N3CCN(c4ncc(F)cn4)CC3C3CC3)c3c(Cl)cc(F)cc32)cc1 (stereo not drawn) [Compound 51, 4-chloro-3-(2-cyclopropyl-4-(5-fluoropyrimidin-2-yl)piperazin-1-yl)-6-fluoro-1-((4-(isopropylsulfonyl)phenyl)sulfonyl)-1H-indazole]	≤ 1
CC(F)(F)c1ccc(S(=O)(=O)n2nc(N3CCN(c4ccc(F)cc4Cl)CC34CC4)c3c(Cl)cccc32)cc1 [Compound 125, 4-chloro-3-(7-(2-chloro-4-fluorophenyl)-4,7-diazaspiro [2.5]octan-4-yl)-1-((4-(1,1-difluoroethyl)phenyl)sulfonyl)-1H-indazole]	≤ 1
CC(C)S(=O)(=O)c1ccc(S(=O)(=O)n2nc(N3CCC(Cl)=CC3C(F)(F)F)c3c(Cl)cccc32)cc1 (stereo not drawn) [Compound 79, 4-chloro-3-[4-chloro-6-(trifluoromethyl)-3,6-dihydro-2H-pyridin-1-yl]-1-(4-isopropylsulfonylphenyl) sulfonyl-indazole]	≤ 1
CC(F)(F)C12CC(S(=O)(=O)n3nc(N4CCN(c5ncc(F)cn5)CC45CC5)c4c(Cl)cccc43)(C1)C2 [Compound 129, 4-chloro-1-((3-(1,1-difluoroethyl)bicycle [1.1.1]pentan-1-yl)sulfonyl)-3-(7-(5-fluoropyrimidin-2-yl)-4,7-diazaspiro [2.5]octan-4-yl)-1H-indazole]	≤ 1
CC(C)S(=O)(=O)c1ccc(S(=O)(=O)n2nc(N3CCN(c4ncc(F)cn4)CC34CC4)c3c(Cl)cccc32)cc1F [Compound 62, 4-chloro-1-(3-fluoro-4-isopropylsulfonyl-phenyl) sulfonyl-3-[7-(5-fluoropyrimidin-2-yl)-4,7-diazaspiro [2.5]octan-4-yl]indazole]	≤ 1
CC(C)S(=O)(=O)c1ccc(S(=O)(=O)n2nc(N3CCN(c4ncc(F)cn4)CC34CC4)c3c(F)cc(F)cc32)cc1 [Compound 20, 4,6-difluoro-3-[7-(5-fluoropyrimidin-2-yl)-4,7-diazaspiro [2.5]octan-4-yl]-1-(4-isopropylsulfonylphenyl) sulfonyl-indazole]	≤ 1
CC(F)(F)c1ccc(S(=O)(=O)n2nc(N3CCN(c4ncc(F)cn4)C[C@@H]3C(C)(C)F)c3c(Cl)cccc32)cc1 (single isomer, unassigned) [Compound 122]	≤ 1
